Source: PubChem BioAssay AID248 (DTP/NCI, 2004)
“And” between values parts separate entries of the source, which are not always exact repeats. Identical values can stand only once. Toxic doses and inconclusive results are not listed. Rule as the data show it: active = T/C of 150% or more; inactive = T/C below 125%.

Tested on: L1210 leukemia ip in BDF1 mice, survival T/C
Assay: NCI In Vivo Anticancer Drug Screen. Data for tumor model L1210 Leukemia (intraperitoneal) in B6D2F1 (BDF1) mice
Conditions: endpoint: mean survival time, higher = longer survival
How it was run: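 Antitumor effect is assessed in tumor-bearing animals. Survival in the compound arm is compared with a vehicle-dosed control arm and expressed as their quotient.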

[1] = dose: 100.0 mg/kg/injection, schedule: Q01DX009 (ip), vehicle: saline with Tween-80
[2] = dose: 100.0 mg/kg/injection, schedule: Q04DX003 (ip), vehicle: saline with Tween-80
[3] = dose: 200.0 mg/kg/injection, schedule: Q01DX009 (ip), vehicle: saline with Tween-80
[4] = dose: 200.0 mg/kg/injection, schedule: Q04DX003 (ip), vehicle: saline with Tween-80
[5] = dose: 400.0 mg/kg/injection, schedule: Q04DX003 (ip), vehicle: saline with Tween-80
[6] = dose: 100.0 mg/kg/injection, schedule: Q01DX001 (ip), vehicle: carboxymethylcellulose (CMC)
[7] = dose: 200.0 mg/kg/injection, schedule: Q01DX001 (ip), vehicle: carboxymethylcellulose (CMC)
[8] = dose: 400.0 mg/kg/injection, schedule: Q01DX001 (ip), vehicle: carboxymethylcellulose (CMC)
[9] = dose: 25.0 mg/kg/injection, schedule: Q01DX009 (ip), vehicle: saline with Tween-80
[10] = dose: 50.0 mg/kg/injection, schedule: Q01DX009 (ip), vehicle: saline with Tween-80
[11] = dose: 100.0 mg/kg/injection, schedule: Q01DX001 (ip), vehicle: saline
[12] = dose: 100.0 mg/kg/injection, schedule: Q04DX003 (ip), vehicle: Klucel (hydroxypropylcellulose) (HPC)
[13] = dose: 200.0 mg/kg/injection, schedule: Q04DX003 (ip), vehicle: Klucel (hydroxypropylcellulose) (HPC)
[14] = dose: 400.0 mg/kg/injection, schedule: Q04DX003 (ip), vehicle: Klucel (hydroxypropylcellulose) (HPC)
[15] = dose: 400.0 mg/kg/injection, schedule: Q01DX009 (ip), vehicle: saline with Tween-80

Measured: T/C

CC(=O)[O][Sn]([CH2]c1ccccc1)([CH2]c1ccccc1)[O]C(C)=O
inactive: dose: 100.0 mg/kg/injection, schedule: Q01DX009 (ip), vehicle: other 109 % of control | dose: 100.0 mg/kg/injection, schedule: Q04DX003 (ip), vehicle: other 92 % of control | dose: 200.0 mg/kg/injection, schedule: Q01DX009 (ip), vehicle: other 98 % of control | dose: 200.0 mg/kg/injection, schedule: Q04DX003 (ip), vehicle: other 97 % of control | dose: 400.0 mg/kg/injection, schedule: Q01DX009 (ip), vehicle: other 95 % of control | dose: 400.0 mg/kg/injection, schedule: Q04DX003 (ip), vehicle: other 95 % of control

O=C(N/N=C/c1ccc(-c2ccccc2)cc1)Nc1ccccc1
inactive: [1] 92 % of control | [2] 92 % of control | [3] 96 % of control | [4] 100 % of control | [5] 93 % of control

CC1C(C)(C)C1(F)Cl (stereo not given)
inactive: [6] 95 % of control | [7] 103 % of control | [8] 108 % of control

CN1CCN(C(=O)Nc2cccc(F)c2)CC1
inactive: [9] 97 % of control | [10] 101 % of control | [1] 94 % of control and 96 % of control

CCN(CC)CC[N-]CCN(CC)CC.[Cl][Pt]
inactive: [11] 97 % of control

c1ccc([C@H]2O[C@@H]2c2ccccc2)cc1
inactive: dose: 12.5 mg/kg/injection, schedule: Q01DX009 (ip), vehicle: saline with Tween-80 91 % of control | dose: 12.5 mg/kg/injection, schedule: Q04DX003 (ip), vehicle: saline with Tween-80 96 % of control | [9] 96 % of control | dose: 25.0 mg/kg/injection, schedule: Q04DX003 (ip), vehicle: saline with Tween-80 93 % of control | [10] 94 % of control | dose: 50.0 mg/kg/injection, schedule: Q04DX003 (ip), vehicle: saline with Tween-80 96 % of control | dose: 100.0 mg/kg/injection, schedule: Q01DX001 (ip), vehicle: Klucel (hydroxypropylcellulose) (HPC) 97 % of control | [12] 92 % of control | dose: 200.0 mg/kg/injection, schedule: Q01DX001 (ip), vehicle: Klucel (hydroxypropylcellulose) (HPC) 101 % of control | [13] 101 % of control | dose: 400.0 mg/kg/injection, schedule: Q01DX001 (ip), vehicle: Klucel (hydroxypropylcellulose) (HPC) 103 % of control | [14] 97 % of control

CC(=O)N/N=C/C=C/c1ccccc1
inactive: [9] 95 % of control | [10] 103 % of control

Nc1nc(=S)[nH][nH]1
inactive: [10] 105 % of control | dose: 100.0 mg/kg/injection, schedule: Q01DX001 (ip), vehicle: saline with Tween-80 104 % of control | [1] 117 % of control | [2] 104 % of control | dose: 200.0 mg/kg/injection, schedule: Q01DX001 (ip), vehicle: saline with Tween-80 105 % of control | [3] 101 % of control | [4] 98 % of control

Clc1nc(I)c(Cl)c(C(Cl)(Cl)Cl)n1
inactive: dose: 12.5 mg/kg/injection, schedule: Q01DX001 (ip), vehicle: Klucel (hydroxypropylcellulose) (HPC) 89 % of control | dose: 25.0 mg/kg/injection, schedule: Q01DX001 (ip), vehicle: Klucel (hydroxypropylcellulose) (HPC) 93 % of control | dose: 50.0 mg/kg/injection, schedule: Q01DX001 (ip), vehicle: Klucel (hydroxypropylcellulose) (HPC) 89 % of control

S=C(c1cccs1)N1CCN(c2ccccc2)CC1
inactive: [11] 97 % of control | dose: 200.0 mg/kg/injection, schedule: Q01DX001 (ip), vehicle: saline 95 % of control | dose: 400.0 mg/kg/injection, schedule: Q01DX001 (ip), vehicle: saline 97 % of control

Cc1cccc(N2CCN(CCO)CC2)c1
inactive: dose: 50.0 mg/kg/injection, schedule: Q01DX009 (ip), vehicle: saline 106 % of control

NC(Cc1ccccc1Cl)C(=O)O (stereo not given)
inactive: dose: 50.0 mg/kg/injection, schedule: Q01DX009 (ip), vehicle: Klucel (hydroxypropylcellulose) (HPC) 102 % of control | dose: 75.0 mg/kg/injection, schedule: Q01DX001 (ip), vehicle: Klucel (hydroxypropylcellulose) (HPC) 86 % of control | dose: 100.0 mg/kg/injection, schedule: Q01DX009 (ip), vehicle: Klucel (hydroxypropylcellulose) (HPC) 102 % of control | dose: 150.0 mg/kg/injection, schedule: Q01DX001 (ip), vehicle: Klucel (hydroxypropylcellulose) (HPC) 99 % of control | dose: 200.0 mg/kg/injection, schedule: Q01DX009 (ip), vehicle: Klucel (hydroxypropylcellulose) (HPC) 102 % of control | dose: 300.0 mg/kg/injection, schedule: Q01DX001 (ip), vehicle: Klucel (hydroxypropylcellulose) (HPC) 96 % of control

CC(=O)CC(=O)N1CCCCC1C (stereo not given)
inactive: [12] 104 % of control | [13] 101 % of control | [14] 97 % of control

COc1ccc(OC)c(C(=O)CC(O)(C(F)(F)F)C(F)(F)F)c1
inactive: [2] 94 % of control | [4] 90 % of control | [5] 99 % of control

Cc1ccc(NC(=O)NCCO)cc1C
inactive: dose: 100.0 mg/kg/injection, schedule: Q04DX002 (ip), vehicle: saline with Tween-80 95 % of control | dose: 200.0 mg/kg/injection, schedule: Q04DX002 (ip), vehicle: saline with Tween-80 95 % of control

Cc1ncc2c(n1)NC(c1ccc(Cl)cc1)=NC2
inactive: dose: 75.0 mg/kg/injection, schedule: Q01DX001 (ip), vehicle: other 91 % of control | dose: 150.0 mg/kg/injection, schedule: Q01DX001 (ip), vehicle: other 100 % of control | dose: 300.0 mg/kg/injection, schedule: Q01DX001 (ip), vehicle: other 96 % of control

Cc1[nH]c(=S)[nH]c(=O)c1CCC(=O)O
inactive: [1] 96 % of control | [12] 94 % of control | [3] 98 % of control | [13] 102 % of control | [15] 98 % of control | [14] 102 % of control

Nc1c(Cl)[nH]cnc1=S
inactive: dose: 224.0 mg/kg/injection, schedule: Q01DX Z (ip), vehicle: methylcellulose (MC) 98 % of control | dose: 334.0 mg/kg/injection, schedule: Q01DX Z (ip), vehicle: methylcellulose (MC) 94 % of control | dose: 500.0 mg/kg/injection, schedule: Q01DX Z (ip), vehicle: methylcellulose (MC) 94 % of control | dose: 750.0 mg/kg/injection, schedule: Q01DX Z (ip), vehicle: methylcellulose (MC) 94 % of control

N#Cc1ccccc1N=NNc1ccc([N+](=O)[O-])cc1
inactive: dose: 75.0 mg/kg/injection, schedule: Q01DX001 (ip), vehicle: saline 108 % of control | dose: 150.0 mg/kg/injection, schedule: Q01DX001 (ip), vehicle: saline 104 % of control | dose: 300.0 mg/kg/injection, schedule: Q01DX001 (ip), vehicle: saline 98 % of control

O=C(C[n+]1ccccc1)N/N=C/c1ccc([N+](=O)[O-])s1
inactive: dose: 12.5 mg/kg/injection, schedule: Q01DX009 (ip), vehicle: water 96 % of control | dose: 25.0 mg/kg/injection, schedule: Q01DX009 (ip), vehicle: water 101 % of control

Oc1ccc(C(c2ccc(O)c(Cl)c2)c2ccccn2)cc1Cl
inactive: [12] 102 % of control | [13] 98 % of control | [14] 100 % of control

Cc1sc2ccc(Cl)cc2[n+]1CCC(=O)O
inactive: [1] 101 % of control | [2] 111 % of control | [3] 96 % of control | [4] 108 % of control | [15] 97 % of control | [5] 95 % of control

ICC1CCC(CI)CC1 (stereo not given)
inactive: [6] 102 % of control | [7] 102 % of control | [8] 102 % of control
